ChEMBL document CHEMBL4257490, “Development of a peptide-based bifunctional chelator conjugated to a cytotoxic drug for the treatment of melanotic melanoma” (Medchemcomm, 2018)
Activity calls are given as the source filed them. The calls are words filed in the database; no cut-off is given here. Residues, ends and D or L forms follow the SMILES beside them. *: point of attachment. X1 = O=c1nc(N*)ccn1[C@@H]1O[C@H](CO)[C@@H](O)C1(F)F

Tests used:
B16-F10 [1] = experiment: Antitumor activity against mouse B16F10 cells allografted in Balb/c mouse assessed as tumor growth inhibition at 25 mg/kg, iv administered thrice weekly for 21 days starting on day 10 post tumor implantation relative to control; assay type: functional; conditions: read-out: TGI
[2] = Drug uptake in kidney of Balb/c mouse allografted with mouse B16F10 cells using 99mTc(CO)3-labeled compound at 10 to 12 MBq/kg, iv measured at 2 hrs; assay type: ADME, organism-based; conditions: in vivo
[3] = Metabolic stability in rat serum assessed as parent compound remaining using 99mTc(CO)3-labeled compound after 24 hrs by TLC method; assay type: ADME, cell-free; conditions: read-out: Stability
[4] = Ratio of drug level in tumor to muscle of Balb/c mouse allografted with mouse B16F10 cells using 99mTc(CO)3-labeled compound at 10 to 12 MBq/kg, iv measured at 4 hrs; assay type: ADME, organism-based, Tumor/tissue; conditions: in vivo
[5] = Ratio of drug level in tumor to muscle of Balb/c mouse allografted with mouse B16F10 cells using 99mTc(CO)3-labeled compound at 10 to 12 MBq/kg, iv measured at 2 hrs; assay type: ADME, organism-based, Tumor/tissue; conditions: in vivo
[6] = Ratio of drug level in tumor to blood of Balb/c mouse allografted with mouse B16F10 cells using 99mTc(CO)3-labeled compound at 10 to 12 MBq/kg, iv measured at 4 hrs; assay type: ADME, organism-based, Tumor/tissue
[7] = Drug uptake in liver of Balb/c mouse allografted with mouse B16F10 cells using 99mTc(CO)3-labeled compound at 10 to 12 MBq/kg, iv measured at 2 hrs; assay type: ADME, organism-based; conditions: in vivo
[8] = Drug degradation in histidine solution using 99mTc(CO)3-labeled compound after 24 hrs by TLC method; assay type: physicochemical; conditions: read-out: Drug degradation
[9] = Drug uptake in urine of Balb/c mouse allografted with mouse B16F10 cells using 99mTc(CO)3-labeled compound at 10 to 12 MBq/kg, iv measured at 4 hrs; assay type: ADME, organism-based; conditions: in vivo
B16-F10 [10] = experiment: Cytotoxicity against mouse B16F10 cells assessed as decrease in cell viability after 72 hrs by MTT assay; assay type: functional, cell-based; conditions: B16-F10, 72 h
[11] = Stability in saline assessed as parent compond remaining using 99mTc(CO)3-labeled compound after 24 hrs by TLC method; assay type: physicochemical; conditions: read-out: Stability
[12] = Drug uptake in mouse B16F10 cells using 99mTc(CO)3-labeled compound at 15 to 20 MBq/ml after 240 mins by gamma scintillation counting method; assay type: ADME, cell-based; conditions: b16-f10, 4 h
[13] = Drug uptake in urine of Balb/c mouse allografted with mouse B16F10 cells using 99mTc(CO)3-labeled compound at 10 to 12 MBq/kg, iv measured at 2 hrs; assay type: ADME, organism-based; conditions: in vivo
[14] = Drug uptake in mouse B16F10 cells using 99mTc(CO)3-labeled compound at 15 to 20 MBq/ml after 240 mins by gamma scintillation counting method relative to total added activity; assay type: ADME, cell-based; conditions: b16-f10, 4 h
[15] = Drug uptake in mouse B16F10 cells using 99mTc(CO)3-labeled compound at 15 to 20 MBq/ml after 30 mins by gamma scintillation counting method; assay type: ADME, cell-based; conditions: b16-f10, 0.5 h
[16] = Drug uptake in gastrointestinal tract of Balb/c mouse allografted with mouse B16F10 cells using 99mTc(CO)3-labeled compound at 4 to 8 MBq, iv measured at 4 hrs by scintigraphic imaging method; assay type: ADME, organism-based; conditions: in vivo
B16-F10 [17] = experiment: Induction of apoptosis in mouse B16F10 cells at IC50 after 72 hrs by annexin V-FITC/propidium iodide staining-based flow cytometric method relative to control; assay type: functional
B16-F10 [18] = experiment: Induction of apoptosis in mouse B16F10 cells assessed as nuclear fragmentation at IC50 after 72 hrs by DAPI staining-based fluorescence microscopic method; assay type: functional, cell-based
[19] = Drug uptake in intestine of Balb/c mouse allografted with mouse B16F10 cells using 99mTc(CO)3-labeled compound at 10 to 12 MBq/kg, iv measured at 4 hrs; assay type: ADME, organism-based; conditions: in vivo
[20] = Drug uptake in kidney of Balb/c mouse allografted with mouse B16F10 cells using 99mTc(CO)3-labeled compound at 10 to 12 MBq/kg, iv measured at 4 hrs; assay type: ADME, organism-based; conditions: in vivo
[21] = Drug uptake in intestine of Balb/c mouse allografted with mouse B16F10 cells using 99mTc(CO)3-labeled compound at 10 to 12 MBq/kg, iv measured at 2 hrs; assay type: ADME, organism-based; conditions: in vivo
[22] = Hemolytic activity in rat erythrocytes up to 50 uM after 1 hr relative to control; assay type: ADME, cell-based, Erythrocyte; conditions: read-out: Activity
[23] = Drug uptake in lung of Balb/c mouse allografted with mouse B16F10 cells using 99mTc(CO)3-labeled compound at 10 to 12 MBq/kg, iv measured at 2 hrs; assay type: ADME, organism-based; conditions: in vivo
[24] = Drug uptake in blood of Balb/c mouse allografted with mouse B16F10 cells using 99mTc(CO)3-labeled compound at 10 to 12 MBq/kg, iv measured at 4 hrs; assay type: ADME, organism-based; conditions: in vivo
[25] = Drug uptake in liver of Balb/c mouse allografted with mouse B16F10 cells using 99mTc(CO)3-labeled compound at 4 to 8 MBq, iv measured at 4 hrs by scintigraphic imaging method; assay type: ADME, organism-based; conditions: in vivo
[26] = Drug uptake in stomach of Balb/c mouse allografted with mouse B16F10 cells using 99mTc(CO)3-labeled compound at 10 to 12 MBq/kg, iv measured at 4 hrs; assay type: ADME, organism-based; conditions: in vivo
[27] = Hemolytic activity in rat erythrocytes at 100 uM after 1 hr relative to control; assay type: ADME, cell-based, Erythrocyte; conditions: read-out: Activity
[28] = Drug uptake in mouse B16F10 cells using 5,6-carboxyfluorescein-labeled compound at 20 ug/ml after 4 hrs by DAPI staining-based fluorescence microscopic method; assay type: ADME, cell-based; conditions: b16-f10, 4 h
[29] = Drug uptake in heart of Balb/c mouse allografted with mouse B16F10 cells using 99mTc(CO)3-labeled compound at 10 to 12 MBq/kg, iv measured at 4 hrs; assay type: ADME, organism-based; conditions: in vivo
B16-F10 [30] = experiment: Ratio of drug uptake in mouse B16F10 cells at 20 ug/ml after 4 hrs by flow cytometric method to drug uptake in mouse B16F10 cells at 20 ug/ml after 30 mins by flow cytometric method; assay type: ADME, cell-based
[31] = Drug uptake in blood of Balb/c mouse allografted with mouse B16F10 cells using 99mTc(CO)3-labeled compound at 10 to 12 MBq/kg, iv measured at 2 hrs; assay type: ADME, organism-based; conditions: in vivo
B16-F10 [32] = experiment: Induction of apoptosis in mouse B16F10 cells assessed as necrotic cells at IC50 after 72 hrs by annexin V-FITC/propidium iodide staining-based flow cytometric method relative to control; assay type: functional
B16-F10 [33] = experiment: Antitumor activity against mouse B16F10 cells allografted in Balb/c mouse assessed as decrease in formation of new blood vessels in tumor at 25 mg/kg, iv administered thrice weekly for 21 days starting on day 10 post tumor implantation by haematoxylin and eosin staining-based method; assay type: functional, organism-based
Mus musculus = experiment: Toxicity in mouse B16F10 cells allografted Balb/c mouse assessed as effect on body weight at 25 mg/kg, iv administered thrice weekly for 21 days starting on day 10 post tumor implantation (reference value: 30.52 +/- 2.9 g); assay type: organism-based; conditions: in vivo, 504 h
[34] = Drug uptake in spleen of Balb/c mouse allografted with mouse B16F10 cells using 99mTc(CO)3-labeled compound at 10 to 12 MBq/kg, iv measured at 2 hrs; assay type: ADME, organism-based; conditions: in vivo

Drug uptake [2]: 18.96 % ID/g | remaining at 24 h [3]: ≥ 92% | Ratio [4]: 18.73 | Ratio [5]: 10.64 | Kp at 4 h [6]: 1.77 | Drug uptake [7]: 17.65 % ID/g | degraded at 24 h [8]: 5% | Drug uptake [9]: 48.21 %ID/ml | remaining at 24 h [11]: ≥ 92% | Drug uptake [12]: 80% | Drug uptake [13]: 41.21 %ID/ml | Drug uptake [14]: 9.87% | Drug uptake [15]: 42.34% | Drug uptake [16]: Active | Drug uptake [19]: 6.28 % ID/g | Drug uptake [20]: 16.25 % ID/g | Drug uptake [21]: 8.51 % ID/g | Drug uptake [23]: 0.4 % ID/g | Drug uptake [24]: 1.58 %ID/ml | Drug uptake [25]: Active | Drug uptake [26]: 0.17 % ID/g | Drug uptake [28]: Active | Drug uptake [29]: 0.04 % ID/g | Ratio (B16-F10 [30]): 4.4 | Drug uptake [31]: 1.79 %ID/ml | Drug uptake [34]: 0.69 % ID/g
SMILES: NCCCC[C@H](NC(=O)CNC(=O)[C@H](Cc1cnc[nH]1)NC(=O)[C@H](CCCCN)NC(=O)[C@H](Cc1ccc(O)cc1)NC(=O)[C@@H](N)Cc1cnc[nH]1)C(=O)N[C@@H](CC(=O)Nc1ccn([C@@H]2O[C@H](CO)[C@@H](O)C2(F)F)c(=O)n1)C(N)=O (H-HYKHGKD(X1)-NH2)
inhibition in vivo at 25 mg/kg (B16-F10 [1]): 62% | IC50 (B16-F10 [10]): 120 nM | Activity (B16-F10 [17]): 61% | Activity (B16-F10 [18]): Active | hemolysis at 1 h [22]: 5 to 6% | hemolysis at 1 h, 100 µM [27]: 7 to 9% | Activity (B16-F10 [32]): 12 - 14% | Activity (B16-F10 [33]): Active | Activity (Mus musculus): 25.15 g
